Experimental data taken from patent US20040121968A1, “Antiangiogenesis by inhibiting protein kinase CK2 activity” (priority 2002, published 2004).

What was measured:
[1] = system: retinal endothelial cells (REC); assay: REC survival assay (low serum, MTS cell number); type: cell-based, bovine
Description: REC proliferation and survival assays. 96-well plates were coated with various amounts of TN-C or vehicle. 5×10^3 cells were added to each triplicate well in low-serum REC medium with various amounts of growth factors (0.5% FCS incomplete BREC medium containing 10 ng/ml of human IGF-I, FGF-2, VEGF, PlGF and PDGF-BB [R&D Systems Inc., Minneapolis, Minn.]). Cell numbers were determined on days 4-7 using the MTS cell proliferation assay (Promega Corp.) according to manufacturer's instructions. Survival was measured in the same way using high glucose (30 mM) or chemical hypoxia (2 mM sodium azide) or serum-free medium to induce cell death. Cell numbers were determined on days 4-7 using MTS assay (Promega).

[2] = system: retinal endothelial cells (REC); assay: Migration (wound healing) assay; type: cell-based, bovine; details: for inhibition of REC migration: basal and growth factor-stimulated (quercetin 50 μM, emodin, DRB 20-25 μM), H-7: preliminary, not shown; for effect on growth factor-mediated cell migration: bovine REC, four GFs (IGF-1+FGF-2+VEGF+PlGF) 10 ng/ml each, 7 days, 0.5% serum, emodin 10 μM, DRB 15 μM
Description: Migration assay. REC migration rates were examined in a wound healing assay, where cells migrate over time into the scrape wound in a monolayer. Briefly, cells were seeded in 24-well plates and allowed to reach confluence in growth medium. Prior to growth factor treatment, cells were serum-starved overnight in incomplete BREC medium with 0.5% FCS. All monolayers within an experiment were wounded with a single sterile wood stick of constant diameter, to ensure uniformity in the wound areas among different treatments. Wounded monolayers were then rinsed with low-serum medium to remove detached cells and treated with various combinations of human growth factors at 10 ng/mL each. On day 7, cells were rinsed 3× with PBS and fixed with methanol for 15 min, rehydrated with dH2O and stained with Meyer's hematoxylin for 5 min, followed by destaining with dH2O. All wells were photographed with a 4× or 10× objective using a Kodak MDS 100 digital camera attached to a Leitz DM IL inverted microscope. The original wound area was measured at 0 hr and used as a baseline for comparison to the treated wells at the conclusion of the experiment. The number of cells migrated into the wound was determined. Migrating cell counting was automated using the AAB (Advanced American Biotechnology, Fullerton, Calif.) software. Data were calculated and statistically analyzed (Spirin K S et al., Basement membrane and growth factor gene expression in normal and diabetic human retinas, Curr. Eye Res. 18:490-499 [1999]) relative to control cultures that received the same concentrations of bovine serum albumin instead of growth factors and/or inhibitor, compared to vehicle instead of inhibitor after wounding. Inhibitors were added 30 min before growth factors.

[3] = system: normal REC and DR REC gene expression; assay: Gene array analysis of growth factor action on normal and DR REC; type: cell-based, human; details: 10 ng/mL growth factor, seven days, 0.5% serum
Description: Normal REC and DR REC gene expression patterns were compared by gene array analysis. Normal, diabetic and DR autopsy human eyes are obtained from National Disease Research Interchange (NDRI), within 24 hours after death. These eyes are used to isolate REC for culture as described hereinabove. Cultures can be used up to the fourth passage, and viable cultures can be cryogenically stored. Cultures of normal, diabetic and DR REC are established from autopsy human eyes and routinely checked for purity using von Willebrand factor immunostaining as described hereinabove. Cells are cultured in 50% F-12, 50% low-glucose DMEM with antibiotics/antimycotics (GIBCO/BRL), insulin-transferrin-selenite, ECGS (Sigma Chemical Co.), and 20% FCS. Statistical analysis of results is done with GraphPad Prism software (GraphPad Software).
In experiments, normal, diabetic, and DR REC were grown for seven days with or without 10 ng/ml VEGF, or 10 ng/mL IGF-I, or 10 ng/mL each VEGF and IGF-I, in medium with 0.5% serum. Long-term rather than short-term treatment was chosen because diabetes develops over a considerable time period. RNA isolated from REC was reverse-transcribed using Smart™ cDNA synthesis method (Clontech), to produce full-length cDNA. Two normal cases or two DR cases were pooled together. This cDNA was PCR-amplified with a short number of cycles and used as a probe for Clontech Atlas Human 1.2 1,200-gene arrays, according to the manufacturer's instructions. This technique had previously been refined and verified by Northern analysis and fully correlated gene array data with protein expression. (Spirin K S et al., Analysis of gene expression in human bullous keratopathy corneas containing limiting amounts of RNA, Invest. Ophthalmol. Vis. Sci. 40:3108-3115 [1999]). Samples were normalized to several housekeeping genes and the analysis was done with available AtlasImage 2.0 software (Clontech). Signal ratio>2 between samples was considered significant as per manufacturer's recommendation.

[4] = system: retinal endothelial cells (REC); assay: Matrigel assay of capillary-like tube formation; type: cell-based, bovine; details: for inhibition of REC tube formation: basal and growth factor-stimulated (quercetin 50 μM, emodin, DRB 20-25 μM)
Description: (§1) In vitro Matrigel™ assay of capillary-like tube formation and secondary sprouting. […] Briefly, 50 μL of reconstituted basement membrane matrix from mouse EHS tumor (BD or GFR Matrigel™; Becton Dickinson Labware, Bedford, Mass.) were dispensed with frozen pipettes into each well of a previously frozen, sterile 96-well plate sitting on wet ice and allowed to solidify for 1 hr at room temperature or 37° C. Approximately 5×10^4 or 7.5×10^4 REC in a 100 μL volume were seeded into each triplicate well. Human recombinant or purified growth factors were added to a final concentration of 10 ng/mL (or as noted) in 0.5% FCS incomplete BREC medium. Capillary-like tube structures formed by REC on reconstituted basement membrane matrix were photographed at various intervals ranging from 12-72 hr; pictures were scanned, digitized and analyzed using image-processing software. For the secondary sprouting assay, cells on reconstituted basement membrane matrix (BD Matrigel™) were seeded as above but incubated in 0.5% FCS incomplete BREC medium without any growth factors for 3 days, allowing for tube formation and collapse. On day 3, human recombinant or purified growth factors were added to a final concentration of 10 ng/mL (or as noted) in low-serum incomplete BREC medium and incubated for another 5-6 days. Digital photographs were obtained with a Kodak MDS 100 camera attached to a Leitz DM IL inverted microscope. Digitized images obtained with a Kodak MDS 100 video camera were stored on compact discs and quantified with NIH Image 1.62 software. The number of living cells in the sprouting colonies were determined using the MTS cell proliferation assay.
(§2) The cells form tubes on Matrigel™ by 16 hr, and by 48 hr, without TN-C or growth factors, the tubes collapse. Secondary sprouting with Matrigel™ invasion starts by day four in culture. Cultures were monitored microscopically. Culture medium with or without growth factors or inhibitors was changed every two-three days.

[5] = system: retinal endothelial cells (REC); assay: REC proliferation assay (MTS cell number); type: cell-based, bovine; details: for inhibition of REC proliferation: basal and growth factor-stimulated (quercetin 50 μM, emodin, DRB 20-25 μM), H-7: preliminary, not shown
Description: REC proliferation and survival assays. 96-well plates were coated with various amounts of TN-C or vehicle. […] Cell numbers were determined on days 4-7 using the MTS cell proliferation assay (Promega Corp.) according to manufacturer's instructions. Survival was measured in the same way using high glucose (30 mM) or chemical hypoxia (2 mM sodium azide) or serum-free medium to induce cell death. Cell numbers were determined on days 4-7 using MTS assay (Promega).

[6] = system: retinal endothelial cells (REC); assay: Secondary sprouting assay on Matrigel; type: cell-based, bovine; details: for inhibition of REC secondary sprouting: basal and growth factor-stimulated (quercetin 50 μM, emodin, DRB 20-25 μM), H-7: preliminary, not shown
Description: as §1, §2

[7] = Solubility in water / vehicle; type: physicochemical
[8] = system: oxygen-induced retinopathy in newborn mice; assay: Oxygen-induced retinopathy in newborn mice (retinal neovascularization); type: in vivo, mouse; details: for retinal neovascularization diminished by: two intraperitoneal injections daily, day 11-17 after birth, emodin 20-30 μg/g, vs untreated or vehicle-treated
[9] = growth factors at 10 ng/ml each
[10] = emodin-treated vs vehicle control

## VEGF
[1]; [9]
  growth factor effect on REC survival: little effect
[2]; [9]
  growth factor effect on REC migration: significantly enhanced
[3]
  expression of pro-apoptotic genes: did not display an increase
  expression of proliferation-related genes: upregulated

## CC1CNCCN1S(=O)(=O)c1cccc2cnccc12 (stereo not drawn) [H-7]
[4]; preliminary results, not shown
  effect on REC tubes on Matrigel: stabilized
[2]
  inhibition of REC migration: inhibited
[5]
  inhibition of REC proliferation: inhibited
[6]
  inhibition of REC secondary sprouting: inhibited

## FGF-2: fibroblast growth factor (FGF)-2
[6]; 10 ng/mL growth factor
  growth factor effect on secondary sprouting (in words): greatly enhanced
[6]; growth factors, on average
  stimulation of secondary sprouting (fold): four-fold

## IGF-I: insulin-like growth factor (IGF)-I
[3]
  expression of pro-apoptotic genes: decrease

## Cc1cc(O)c2c(c1)C(=O)c1cc(O)cc(O)c1C2=O [emodin, 3-methyl-1,6,8-trihydroxyanthraquinone]
[4]
  inhibition of REC tube formation: potently inhibited
[7]
  solubility in water: not easily dissolved in water
[7]; phosphate-buffered saline with 20% PEG 400 + 2% Tween-80, pH 7.2
  solubility in vehicle: did not ensure emodin solubility
[8]; [10]
  neovascular tufts in fluorescein angiograms: much less pronounced
  retinal vascularization in fluorescein angiograms: significantly less vascularization
[8]
  retinal neovascularization diminished by: 70-75%
[2]
  inhibition of REC migration: potently inhibited
  effect on growth factor-mediated cell migration: significant inhibitory effect
[5]
  inhibition of REC proliferation: potently inhibited
[6]
  inhibition of REC secondary sprouting: potently inhibited

## OC[C@H]1O[C@@H](n2cnc3cc(Cl)c(Cl)cc32)[C@H](O)[C@@H]1O [DRB, 5,6-dichloro-1-β-D-ribofuranosylbenzimidazole]
[4]
  inhibition of REC tube formation: potently inhibited
[7]
  solubility in water: not easily dissolved in water
[8]
  retinal neovascularization diminished by: about 60%
[1]; bovine REC, 0.5% serum, various concentrations, day 6, MTS
  effect on number of live cells (survival): significantly lowers cell number
[2]
  inhibition of REC migration: potently inhibited
  effect on growth factor-mediated cell migration: significant inhibitory effect
[5]
  inhibition of REC proliferation: potently inhibited
[5]; bovine REC, 10% serum, various concentrations, day 6, MTS
  effect on number of live cells (proliferation): significantly lowers cell number
[6]
  inhibition of REC secondary sprouting: potently inhibited
[6]; bovine REC on Matrigel, 0.5% serum, day 9, MTS
  concentration from which cell number in secondary sprouting is significantly decreased: ≥ 25 µM

## O=c1c(O)c(-c2ccc(O)c(O)c2)oc2cc(O)cc(O)c12 [quercetin]
[4]
  inhibition of REC tube formation: potently inhibited
[8]; intramuscular injections, data not shown
  effect on retinal neovascularization: substantial effect
[2]
  inhibition of REC migration: potently inhibited
[5]
  inhibition of REC proliferation: potently inhibited
[6]
  inhibition of REC secondary sprouting: potently inhibited
